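Assay format: 96-well plates, 48-hour exposure. GI50 = concentration required for 50% inhibition of growth. The concentration for full growth arrest is given as TGI.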
What was measured:
Test in all cases: NCI tumour cell line growth inhibition, 48 h
NCI-H23 lung = tested on: NCI-H23 lung
OVCAR-5 ovarian = tested on: OVCAR-5 ovarian
HCT-116 colon = tested on: HCT-116 colon
UACC-257 melanoma = tested on: UACC-257 melanoma
NCI-H460 lung = tested on: NCI-H460 lung
OVCAR-8 ovarian = tested on: OVCAR-8 ovarian
CAKI-1 renal = tested on: CAKI-1 renal
SK-OV-3 ovarian = tested on: SK-OV-3 ovarian
TK-10 renal = tested on: TK-10 renal
U251 CNS = tested on: U251 CNS

Row | SMILES | GI50 (NCI-H23 lung) [µM] | TGI (NCI-H23 lung) [µM] | GI50 (OVCAR-5 ovarian) [µM] | TGI (OVCAR-5 ovarian) [µM] | GI50 (HCT-116 colon) [µM] | TGI (HCT-116 colon) [µM] | GI50 (UACC-257 melanoma) [µM] | TGI (UACC-257 melanoma) [µM] | GI50 (NCI-H460 lung) [µM] | TGI (NCI-H460 lung) [µM] | GI50 (OVCAR-8 ovarian) [µM] | TGI (OVCAR-8 ovarian) [µM] | GI50 (CAKI-1 renal) [µM] | TGI (CAKI-1 renal) [µM] | GI50 (SK-OV-3 ovarian) [µM] | TGI (SK-OV-3 ovarian) [µM] | GI50 (TK-10 renal) [µM] | TGI (TK-10 renal) [µM] | GI50 (U251 CNS) [µM] | TGI (U251 CNS) [µM]
1 | COc1cc(-c2nn(-c3cccc(NC(=O)Nc4cc(C(F)(F)F)cc(C(F)(F)F)c4)c3)cc2-c2ccncc2)ccc1Cl | 0.59 | 3.94 | 1.09 | 3.54 | 0.442 | 2.44 | 0.755 | 2.21 | 0.366 | 1.64 | 0.524 | 3.98 | 0.852 | 2.93 | 1.16 | 2.87 | 0.719 | 2.46 | 0.36 | 1.13
2 | Cc1cc2nc3c4cc(N)ccc4n(CCN(C)C)c3nc2cc1C | 0.981 | 3.73 | 0.914 | 9.66 | 0.365 | 10.9 | 1.21 | 5.14 | 0.402 | 2.95 | 0.584 | 12.8 | 0.462 | 6.28 | 1.92 | 16.4 | 1.99 | 7.54 | 0.613 | 11.1
3 | CC(=O)[CH-]C(=O)c1ccccc1.CC(=O)[CH-]C(=O)c1ccccc1.CC(C)CCCC(C)[C@H]1CCC2[C@@H]3CC=C4C[C@@H]([O-])CC[C@]4(C)C3CC[C@@]21C.CC[O-].[Ti+4] (some centres undefined) | 26.9 | 84.2 | > 100 | > 100 | 45.7 | > 100 | 60.3 | > 100 | 44.8 | > 100 | 46.3 | > 100 | > 100 | > 100 | > 100 | > 100 | 45.6 | > 100 | 48.7 | > 100
4 | Oc1cc(O)c2c(-c3c(O)c(-c4ccc(O)c(O)c4)[o+]c4cc(O)cc(O)c34)c(O)c(-c3ccc(O)c(O)c3)[o+]c2c1 | – | > 100 | – | > 100 | – | > 100 | – | > 100 | – | 90.6 | – | > 100 | – | 95.6 | – | > 100 | – | > 100 | – | > 100
5 | COc1cc2c3c(n(CCCN)c(=O)c2cc1OC)-c1cc2c(cc1/C3=C\CCN)OCO2 | 5.35 | 24.1 | 4.29 | > 26.1 | 0.989 | – | 8.29 | 19.2 | 1.06 | 7.53 | 1.99 | 13.1 | 23.6 | > 100 | 6 | 44.2 | 4.92 | > 28 | 1.33 | 11
6 | CC1(C)N=C(N)N=C(N)N1c1ccc(OCCCCOc2ccc(S(=O)(=O)F)cc2)c(Cl)c1 | 0.115 | 19.5 | 0.302 | 22.7 | 0.0463 | 16.7 | 0.581 | 14.1 | 0.0382 | 11.8 | 0.348 | 17.4 | 3.7 | > 47.2 | 5.88 | 24.9 | 1.13 | 20.7 | 0.0506 | 13.6
